Values quoted from earlier work, collected in patent US10835538B2, “Method of treating benign prostatic hyperlasia with antibiotics” (Nymox Corporation, priority 2018, dated 2020).

## CC(COc1ccccc1)N(CCCl)Cc1ccccc1 (centres unmarked) [phenoxybenzamine]
human, in vivo
  Cases treated in which side effects cannot be tolerated and therapy has to be abandoned: about 10%
hypotension, dizziness, faintness, tachycardia, weakness, retrograde or absent ejaculation
  Patients treated for BPH in whom side effects are present: approximately 30%
